Measurements as given in patent publication US10294202B2, “Pyrrolidinones as herbicides” (FMC Corporation, priority 2013, dated 2019).

Columns and labels:
barnyardgrass = assay: Test C pre-/postemergence herbicide test; format: in vivo, Echinochloa crus-galli
How it was run: (§1)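 Visual rating, 0 (no effect) to 100 (complete control), versus untreated controls after 13 to 15 days in the greenhouse. Pre: seeds in loam/sand, sprayed at planting. Post: 1- to 4-leaf plants (2 to 18 cm) in peat-based mix. Compounds in non-phytotoxic solvent plus surfactant.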

morningglory = assay: Test C pre-/postemergence herbicide test; format: in vivo, Ipomoea coccinea
How it was run: as §1

ducksalad = assay: Test B flooded paddy test; format: in vivo, Heteranthera limosa; settings: 500 g ai/ha, Flood; scale of 0 to 100 where 0 is no effect and 100 is complete control
How it was run: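 Plants were grown to the 2-leaf stage, then pots were flooded to 3 cm above the soil and compound was applied directly into the paddy water, with that depth held throughout. After 13 to 15 days in a greenhouse, injury was rated visually against untreated controls on a 0 to 100 scale (100 = complete control).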

galium = assay: Test A postemergence herbicide test; format: in vivo, Galium aparine
How it was run: (§2)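 Plants at the one- to two-leaf stage, 2–10 cm tall, grown in loam/sand pots, received postemergence sprays of the test chemicals. After about 10 days in the greenhouse, injury was scored visually against untreated controls on a 0–100 scale (0 none, 100 complete control).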

oilseed rape = assay: Test C pre-/postemergence herbicide test; format: in vivo, Brassica napus
How it was run: as §1

wheat = assay: Test A pre-/postemergence herbicide test; format: in vivo, Triticum aestivum; settings: Postemergence
How it was run: (§3)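 Seeds sown in loam soil/sand blend received a preemergence directed soil spray of test chemical in non-phytotoxic solvent with surfactant; postemergence plants (2–10 cm, one- to two-leaf stage) were sprayed with the same formulation. After about 10 days in greenhouse, injury was rated visually versus untreated controls, 0 (no effect) to 100 (complete control).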

blackgrass = assay: Test A postemergence herbicide test; format: in vivo, Alopecurus myosuroides
How it was run: as §2

foxtail, giant = assay: Test C pre-/postemergence herbicide test; format: in vivo, Setaria faberii
How it was run: as §1

ragweed = assay: Test A pre-/postemergence herbicide test; format: in vivo, Ambrosia elatior
How it was run: as §3

[1] = Postemergence, 31 g ai/ha, scale 0 to 100 (0 no effect, 100 complete control)
[2] = Postemergence, 62 g ai/ha, scale 0 (no effect) to 100 (complete control)
[3] = Postemergence, 125 g ai/ha, scale 0 to 100 (0 no effect, 100 complete control)
[4] = Postemergence, 250 g ai/ha, scale 0 to 100 (0 no effect, 100 complete control)
[5] = Preemergence, 31 g ai/ha, scale 0 to 100, 0 is no effect and 100 is complete control
[6] = Preemergence, 62 g ai/ha, scale 0 to 100
[7] = Preemergence, 125 g ai/ha, scale 0 to 100 (0 no effect, 100 complete control)
[8] = 125 g ai/ha, 0 to 100 scale, 0 no effect, 100 complete control
[9] = 500 g ai/ha, 0 to 100 scale (0 no effect, 100 complete control)
[10] = 125 g ai/ha, visual rating, 0 to 100 scale, 0 no effect, 100 complete control, approximately 10 days, preemergence
[11] = Preemergence, 62 g ai/ha, scale 0 to 100 (0 no effect, 100 complete control)
[12] = 125 g ai/ha, 0 to 100 scale, 0 is no effect, 100 is complete control
[13] = Postemergence, 125 g ai/ha, 0 to 100 scale, 0 is no effect, 100 is complete control
[14] = preemergence, 500 g ai/ha, 0 to 100 scale, 0 is no effect and 100 is complete control
[15] = Preemergence, 125 g ai/ha, scale 0 to 100
[16] = 125 g ai/ha, visual rating on 0 to 100 scale (0 no effect, 100 complete control), approx. 10 days

O=C1NCC(c2ccc(F)cc2)C1C(=O)Nc1ccc(F)c(F)c1F (racemic) [Compound 120]
Plant response rating, Barnyardgrass (barnyardgrass; [1]): 0
Plant response rating, Barnyardgrass (barnyardgrass; [2]): 30
Plant response rating, Barnyardgrass (barnyardgrass; [3]): 40
Plant response rating, Barnyardgrass (barnyardgrass; [4]): 65
Barnyardgrass plant response rating (barnyardgrass; [5]): 85
Plant response rating, Barnyardgrass (barnyardgrass; [6]): 90
Plant response rating, Barnyardgrass (barnyardgrass; [7]): 95
Plant response rating (scale of 0 to 100; 0 is no effect, 100 is complete control), Barnyardgrass (barnyardgrass; Preemergence, 250 g ai/ha): 98
Plant response rating, Morningglory (morningglory; [1]): 0
Plant response rating, Morningglory (morningglory; [2]): 5
Plant response rating, Morningglory (morningglory; [3]): 0
Plant response rating, Morningglory (morningglory; [4]): 5
Morningglory plant response rating (morningglory; [5]): 0
Plant response rating, Morningglory (morningglory; [6]): 0
Plant response rating, Morningglory (morningglory; [7]): 35
Plant response rating (scale of 0 to 100), Morningglory (morningglory; Preemergence, 250 g ai/ha): 40
Plant response rating, Ducksalad (ducksalad): 100
Plant response rating, Galium (galium; [8]): 50
Galium plant response rating (0 to 100 scale, 0 is no effect, 100 is complete control) (galium; 500 g ai/ha): 60
Plant response rating, Oilseed Rape (oilseed rape; [1]): 0
Plant response rating, Oilseed Rape (oilseed rape; [2]): 0
Plant response rating, Oilseed Rape (oilseed rape; [3]): 0
Plant response rating, Oilseed Rape (oilseed rape; [4]): 0
Oilseed Rape plant response rating (oilseed rape; [5]): 0
Plant response rating, Oilseed Rape (oilseed rape; [6]): 0
Plant response rating, Oilseed Rape (oilseed rape; [7]): 70
Plant response rating (scale of 0 to 100), Oilseed Rape (oilseed rape; Preemergence, 250 g ai/ha): 90
Plant response rating, Wheat (wheat; [8]): 20
Wheat plant response rating (0 to 100 scale, 0 is no effect, 100 is complete control) (wheat; 500 g ai/ha): 60
Plant response rating, Blackgrass (blackgrass; [8]): 40
Plant response rating, Blackgrass (blackgrass; [9]): 50
Plant response rating, Foxtail, Giant (foxtail, giant; [1]): 25
Plant response rating, Foxtail, Giant (foxtail, giant; [2]): 65
Plant response rating, Foxtail, Giant (foxtail, giant; [3]): 75
Plant response rating, Foxtail, Giant (foxtail, giant; [4]): 85
Foxtail, Giant plant response rating (foxtail, giant; [5]): 90
Plant response rating, Foxtail, Giant (foxtail, giant; [6]): 95
Plant response rating, Foxtail, Giant (foxtail, giant; [7]): 98
Plant response rating (scale of 0 to 100), Foxtail, Giant (foxtail, giant; Preemergence, 250 g ai/ha): 98
Plant response rating, Ragweed (ragweed; [10]): 60
Plant response rating, Ragweed (ragweed; Postemergence, 125 g ai/ha, 0 to 100 scale, 0 no effect, 100 complete control): 30
Ragweed plant response rating (0 to 100 scale, 0 is no effect, 100 is complete control) (ragweed; Postemergence, 500 g ai/ha): 50
Plant response rating, Ragweed (ragweed; preemergence, 500 g ai/ha, 0 to 100 scale): 80

O=C1NCC(c2ccc(Cl)cc2)C1C(=O)Nc1cccc(F)c1F (centres unmarked) [Compound 218]
Barnyardgrass plant response rating (barnyardgrass; [5]): 80
Plant response rating, Barnyardgrass (barnyardgrass; [6]): 90
Plant response rating, Barnyardgrass (barnyardgrass; [7]): 95
Plant response rating (scale of 0 to 100; 0 is no effect, 100 is complete control), Barnyardgrass (barnyardgrass; Preemergence, 250 g ai/ha): 95
Morningglory plant response rating (morningglory; [5]): 0
Morningglory plant response rating (morningglory; [11]): 0
Plant response rating, Morningglory (morningglory; [7]): 25
Plant response rating (scale of 0 to 100), Morningglory (morningglory; Preemergence, 250 g ai/ha): 20
Plant response rating, Ducksalad (ducksalad): 100
Plant response rating, Galium (galium; [12]): 40
Galium plant response rating (0 to 100 scale, 0 is no effect, 100 is complete control) (galium; 500 g ai/ha): 60
Oilseed Rape plant response rating (oilseed rape; [5]): 0
Oilseed Rape plant response rating (oilseed rape; [11]): 60
Plant response rating, Oilseed Rape (oilseed rape; [7]): 20
Plant response rating (scale of 0 to 100), Oilseed Rape (oilseed rape; Preemergence, 250 g ai/ha): 70
Plant response rating, Wheat (wheat; [12]): 20
Wheat plant response rating (0 to 100 scale, 0 is no effect, 100 is complete control) (wheat; 500 g ai/ha): 50
Plant response rating, Blackgrass (blackgrass; [12]): 20
Blackgrass plant response rating (0 to 100 scale, 0 is no effect, 100 is complete control) (blackgrass; 500 g ai/ha): 40
Foxtail, Giant plant response rating (foxtail, giant; [5]): 85
Foxtail, Giant plant response rating (foxtail, giant; [11]): 90
Plant response rating, Foxtail, Giant (foxtail, giant; [7]): 90
Plant response rating (scale of 0 to 100), Foxtail, Giant (foxtail, giant; Preemergence, 250 g ai/ha): 95
Plant response rating, Ragweed (ragweed; [10]): 0
Plant response rating, Ragweed (ragweed; [13]): 0
Ragweed plant response rating (0 to 100 scale, 0 is no effect, 100 is complete control) (ragweed; Postemergence, 500 g ai/ha): 50
Plant response rating, Ragweed (ragweed; [14]): 50

CC(C)c1cccc(C2CNC(=O)C2C(=O)Nc2ccccc2F)c1 (centres unmarked) [Compound 318]
Barnyardgrass plant response rating (barnyardgrass; [5]): 80
Barnyardgrass plant response rating (barnyardgrass; [11]): 95
Plant response rating, Barnyardgrass (barnyardgrass; [7]): 95
Plant response rating (scale of 0 to 100; 0 is no effect, 100 is complete control), Barnyardgrass (barnyardgrass; Preemergence, 250 g ai/ha): 95
Morningglory plant response rating (morningglory; [5]): 30
Morningglory plant response rating (morningglory; [11]): 40
Plant response rating, Morningglory (morningglory; [15]): 30
Plant response rating (scale of 0 to 100), Morningglory (morningglory; Preemergence, 250 g ai/ha): 40
Plant response rating, Ducksalad (ducksalad): 100
Plant response rating, Galium (galium; [16]): 30
Plant response rating, Galium (galium; [9]): 40
Oilseed Rape plant response rating (oilseed rape; [5]): 0
Oilseed Rape plant response rating (oilseed rape; [11]): 0
Plant response rating, Oilseed Rape (oilseed rape; [15]): 5
Plant response rating (scale of 0 to 100), Oilseed Rape (oilseed rape; Preemergence, 250 g ai/ha): 5
Plant response rating, Wheat (wheat; [16]): 20
Plant response rating, Wheat (wheat; [9]): 30
Plant response rating, Blackgrass (blackgrass; [16]): 30
Plant response rating, Blackgrass (blackgrass; [9]): 40
Foxtail, Giant plant response rating (foxtail, giant; [5]): 10
Foxtail, Giant plant response rating (foxtail, giant; [11]): 70
Plant response rating, Foxtail, Giant (foxtail, giant; [15]): 75
Plant response rating (scale of 0 to 100), Foxtail, Giant (foxtail, giant; Preemergence, 250 g ai/ha): 90
Plant response rating, Ragweed (ragweed; Postemergence, 125 g ai/ha, visual rating on 0 to 100 scale (0 no effect, 100 complete control), approx. 10 days): 0
Plant response rating, Ragweed (ragweed; Postemergence, 500 g ai/ha, 0 to 100 scale (0 no effect, 100 complete control)): 30
Plant response rating, Ragweed (ragweed; Preemergence, 125 g ai/ha, 0 to 100 scale where 0 is no effect and 100 is complete control): 20
Ragweed plant response rating (ragweed; Preemergence, 500 g ai/ha, visual rating on 0 to 100 scale (0 no effect, 100 complete control)): 40

O=C1NCC(c2cccc(OC(F)F)c2)C1C(=O)Nc1cccc(F)c1F (centres unmarked) [Compound 224]
Plant response rating, Barnyardgrass (barnyardgrass; [1]): 0
Plant response rating, Barnyardgrass (barnyardgrass; [2]): 30
Plant response rating, Barnyardgrass (barnyardgrass; [3]): 50
Plant response rating, Barnyardgrass (barnyardgrass; [4]): 75
Barnyardgrass plant response rating (barnyardgrass; [5]): 75
Plant response rating, Barnyardgrass (barnyardgrass; [6]): 85
Plant response rating, Barnyardgrass (barnyardgrass; [7]): 90
Plant response rating (scale of 0 to 100; 0 is no effect, 100 is complete control), Barnyardgrass (barnyardgrass; Preemergence, 250 g ai/ha): 95
Plant response rating, Morningglory (morningglory; [1]): 5
Plant response rating, Morningglory (morningglory; [2]): 5
Plant response rating, Morningglory (morningglory; [3]): 35
Plant response rating, Morningglory (morningglory; [4]): 35
Morningglory plant response rating (morningglory; [5]): 5
Morningglory plant response rating (morningglory; [11]): 25
Plant response rating, Morningglory (morningglory; [7]): 5
Plant response rating (scale of 0 to 100), Morningglory (morningglory; Preemergence, 250 g ai/ha): 30
Plant response rating, Ducksalad (ducksalad): 100
Plant response rating, Galium (galium; [12]): 70
Galium plant response rating (0 to 100 scale, 0 is no effect, 100 is complete control) (galium; 500 g ai/ha): 70
Plant response rating, Oilseed Rape (oilseed rape; [1]): 0
Plant response rating, Oilseed Rape (oilseed rape; [2]): 15
Plant response rating, Oilseed Rape (oilseed rape; [3]): 20
Plant response rating, Oilseed Rape (oilseed rape; [4]): 5
Oilseed Rape plant response rating (oilseed rape; [5]): 0
Oilseed Rape plant response rating (oilseed rape; [11]): 5
Plant response rating, Oilseed Rape (oilseed rape; [7]): 70
Plant response rating (scale of 0 to 100), Oilseed Rape (oilseed rape; Preemergence, 250 g ai/ha): 85
Plant response rating, Wheat (wheat; [12]): 50
Wheat plant response rating (0 to 100 scale, 0 is no effect, 100 is complete control) (wheat; 500 g ai/ha): 60
Plant response rating, Blackgrass (blackgrass; [12]): 60
Blackgrass plant response rating (0 to 100 scale, 0 is no effect, 100 is complete control) (blackgrass; 500 g ai/ha): 70
Plant response rating, Foxtail, Giant (foxtail, giant; [1]): 0
Plant response rating, Foxtail, Giant (foxtail, giant; [2]): 0
Plant response rating, Foxtail, Giant (foxtail, giant; [3]): 60
Plant response rating, Foxtail, Giant (foxtail, giant; [4]): 35
Foxtail, Giant plant response rating (foxtail, giant; [5]): 80
Foxtail, Giant plant response rating (foxtail, giant; [11]): 90
Plant response rating, Foxtail, Giant (foxtail, giant; [7]): 95
Plant response rating (scale of 0 to 100), Foxtail, Giant (foxtail, giant; Preemergence, 250 g ai/ha): 98
Plant response rating, Ragweed (ragweed; [10]): 90
Plant response rating, Ragweed (ragweed; [13]): 40
Ragweed plant response rating (0 to 100 scale, 0 is no effect, 100 is complete control) (ragweed; Postemergence, 500 g ai/ha): 60
Plant response rating, Ragweed (ragweed; [14]): 90
